In data set [1] the target is T1, NS5B from the BK strain (genotype 1b) (Hepatitis C virus genotype 1b, UniProt P26663).
T1 construct: NS5B from the BK strain (genotype 1b) is expressed in E. coli as a protein in which the 21 C-terminal amino acids are replaced; made in house; host or cells: E. coli
The data set is described as follows: Hepatitis C polymerase inhibition, NS5B BK strain, 33P-GTP filter assay. Particulars: NS5B BK strain. In kind it is biochemical. Summed up: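 Radiolabelled RNA synthesis was measured by filter capture and scintillation counting after EDTA stop. His-tagged, C-terminally truncated (Δ21) genotype 1b BK NS5B from E. coli, pre-exposed to compound for 15 min, copied a self-primed RNA template (~3 nM) with α-[33P]-GTP for 2 h at room temperature.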

Data set [2] concerns the target BB7 (RNA-dependent RNA polymerase hepatitis C virus protein sequence derived from HCV replicon) (Hepatitis C virus genotype 1b, UniProt Q9WMX2). The data set is described as follows: Hepatitis C polymerase inhibition, BB7 sequence. In kind it is biochemical. Conditions: Table 1B.

Like-named read-outs stand apart in the source and are kept apart here.

Broadly, the melting point is the temperature of the solid-liquid transition. The term IC50 denotes the concentration needed to halve the response being measured.

Sequence of BB7 (RNA-dependent RNA polymerase hepatitis C virus protein sequence derived from HCV replicon) (Q9WMX2 2420-3010): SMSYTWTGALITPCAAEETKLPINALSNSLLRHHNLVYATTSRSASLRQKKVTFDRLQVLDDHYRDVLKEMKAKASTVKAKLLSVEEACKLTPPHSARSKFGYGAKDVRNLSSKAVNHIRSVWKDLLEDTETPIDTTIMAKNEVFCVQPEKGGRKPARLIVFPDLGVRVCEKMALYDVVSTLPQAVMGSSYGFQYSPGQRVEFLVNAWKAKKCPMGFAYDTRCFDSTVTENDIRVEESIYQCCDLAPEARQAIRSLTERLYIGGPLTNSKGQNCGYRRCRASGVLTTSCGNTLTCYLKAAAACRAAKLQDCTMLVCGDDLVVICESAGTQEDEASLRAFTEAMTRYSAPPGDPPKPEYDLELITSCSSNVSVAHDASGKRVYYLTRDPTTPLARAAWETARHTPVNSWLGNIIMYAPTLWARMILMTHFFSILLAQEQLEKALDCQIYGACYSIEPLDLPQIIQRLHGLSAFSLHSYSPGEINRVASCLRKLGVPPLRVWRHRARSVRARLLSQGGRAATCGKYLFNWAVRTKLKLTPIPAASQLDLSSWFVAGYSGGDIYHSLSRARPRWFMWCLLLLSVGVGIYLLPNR
T1 sequence (P26663 2420-2989): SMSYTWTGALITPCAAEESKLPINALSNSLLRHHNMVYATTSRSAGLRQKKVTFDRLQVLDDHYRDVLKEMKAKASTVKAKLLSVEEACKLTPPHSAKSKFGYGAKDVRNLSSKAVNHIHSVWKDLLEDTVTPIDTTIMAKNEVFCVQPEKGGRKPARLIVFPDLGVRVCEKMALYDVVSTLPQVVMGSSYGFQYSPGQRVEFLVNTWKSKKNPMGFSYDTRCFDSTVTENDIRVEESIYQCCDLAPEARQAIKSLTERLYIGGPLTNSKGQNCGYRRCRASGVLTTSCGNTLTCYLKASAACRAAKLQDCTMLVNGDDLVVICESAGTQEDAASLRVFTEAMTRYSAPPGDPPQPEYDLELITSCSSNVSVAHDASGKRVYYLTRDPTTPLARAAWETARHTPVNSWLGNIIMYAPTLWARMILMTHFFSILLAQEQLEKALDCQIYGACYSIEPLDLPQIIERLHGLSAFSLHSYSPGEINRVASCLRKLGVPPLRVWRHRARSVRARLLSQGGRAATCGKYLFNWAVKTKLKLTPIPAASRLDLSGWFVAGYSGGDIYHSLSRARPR

On to `CCCC1(CC(=O)O)OCCc2c1[nH]c1c(F)ccc(C(=O)N3CCOCC3)c21` (centres unmarked) [Example 225, [8-Fluoro-5-(morpholine-4-carbonyl)-1-propyl-1,3,4,9-tetrahydro-pyrano[3,4-b]indol-1-yl]-acetic Acid], for which the melting point was in the range of 98 to 100 °C. Further, the IC50 in data set [1] (Table 1A, read-out: HCV pol BK IC50) is above 20 µM.

On to `CCCC1(CC(=O)O)OCCc2c1[nH]c1c(F)ccc(C(F)(F)F)c21` (centres unmarked) [Example 268, (8-fluoro-1-propyl-5-trifluoromethyl-1,3,4,9-tetrahydropyrano[3,4-b]indol-1-yl)acetic acid], for which the IC50 in data set [2] is 6.1 µM; in data set [1] (Table 1B, read-out: BK IC50) it was 4.6 µM.

Take `N#Cc1ccc(F)c2[nH]c3c(c12)CCOC3(C(=O)O)C1CCCCC1` (centres unmarked) [Example 351, (5-cyano-1-cyclohexyl-8-fluoro-1,3,4,9-tetrahydropyrano[3,4-b]indol-1-yl)carboxylic acid]: the IC50 is above 30 µM in data set [2] and above 30 µM in data set [1] (Table 1B, read-out: BK IC50).

Consider `O=C(O)CC1(C2CCC2)OCCc2c1[nH]c1c(F)ccc(C(F)(F)F)c21` (centres unmarked) [Example 269, (1-cyclobutyl-8-fluoro-5-trifluoromethyl-1,3,4,9-tetrahydropyrano[3,4-b]indol-1-yl)acetic acid], for which the IC50 in data set [2] turned out to be 9.4 µM; in data set [1] (Table 1B, read-out: BK IC50), 9.4 µM.
